Laboratory results taken from patent publication US10294202B2, “Pyrrolidinones as herbicides” (FMC Corporation, priority 2013, dated 2019).

How the values were obtained:
[1] = system: sedge, umbrella; assay: Test B flooded paddy test; type: in vivo, Cyperus difformis; conditions: Flood, scale of 0 to 100 where 0 is no effect and 100 is complete control
Summary of the method: (§1)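 Scored visually 0–100 (0 no effect, 100 complete control) versus controls after 13 to 15 greenhouse days. Treatment: compound added to paddy water kept 3 cm above soil, on 2-leaf-stage plants.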

[2] = system: crabgrass, large; assay: Test A pre-/postemergence herbicide test; type: in vivo, Digitaria sanguinalis
Summary of the method: (§2)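 Approximately 10 days after treatment in the greenhouse, plants were compared with untreated controls and given a 0–100 visual injury rating. Applications: preemergence directed soil spray; postemergence on 2–10 cm plants at the one- to two-leaf stage.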

[3] = system: corn; assay: Test A pre-/postemergence herbicide test; type: in vivo, Zea mays
Summary of the method: as §2

[4] = system: pigweed; assay: Test A pre-/postemergence herbicide test; type: in vivo, Amaranthus retroflexus
Summary of the method: as §2

[5] = system: wheat; assay: Test A pre-/postemergence herbicide test; type: in vivo, Triticum aestivum
Summary of the method: as §2

[6] = system: ducksalad; assay: Test B flooded paddy test; type: in vivo, Heteranthera limosa; conditions: Flood, scale of 0 to 100 where 0 is no effect and 100 is complete control
Summary of the method: as §1

[7] = system: morningglory; assay: Test A pre-/postemergence herbicide test; type: in vivo, Ipomoea spp.
Summary of the method: as §2

[8] = system: giant foxtail; assay: Test A pre-/postemergence herbicide test; type: in vivo, Setaria faberii
Summary of the method: as §2

[9] = system: rice; assay: Test B flooded paddy test; type: in vivo, Oryza sativa; conditions: Flood, scale of 0 to 100 where 0 is no effect and 100 is complete control
Summary of the method: as §1

[10] = system: barnyardgrass; assay: Test B flooded paddy test; type: in vivo, Echinochloa crus-galli; conditions: Flood, scale of 0 to 100 where 0 is no effect and 100 is complete control
Summary of the method: as §1

[11] = system: barnyardgrass; assay: Test A pre-/postemergence herbicide test; type: in vivo, Echinochloa crus-galli
Summary of the method: as §2

[12] = system: velvetleaf; assay: Test A pre-/postemergence herbicide test; type: in vivo, Abutilon theophrasti
Summary of the method: as §2

[13] = Postemergence, 1000 g ai/ha, 0 to 100 scale (0 no effect, 100 complete control)
[14] = preemergence, 1000 g ai/ha, 0 to 100 scale
[15] = preemergence, 1000 g ai/ha, 0 to 100 scale (0 no effect, 100 complete control)
[16] = Postemergence, 125 g ai/ha, 0 to 100 scale, 0 no effect, 100 complete control
[17] = Postemergence, 500 g ai/ha, 0 to 100 scale (0 no effect, 100 complete control)
[18] = Preemergence, 125 g ai/ha, visual rating on 0 to 100 scale (0 no effect, 100 complete control)
[19] = preemergence, 500 g ai/ha, 0 to 100 scale

CON(C(=O)C1C(=O)NCC1c1ccc(F)c(F)c1)c1ccccc1[N+](=O)[O-] (centres unmarked) [Compound 243]
Plant response rating, Sedge, Umbrella ([1]; 250 g ai/ha): 0
Plant response rating, Crabgrass, Large [2, 13]: 0
Plant response rating, Crabgrass, Large [2, 14]: 90
Plant response rating, Corn [3, 13]: 0
Plant response rating, Corn [3, 14]: 0
Plant response rating, Pigweed [4, 13]: 0
Plant response rating, Pigweed [4, 14]: 0
Plant response rating, Wheat [5, 13]: 0
Plant response rating, Wheat [5, 14]: 0
Plant response rating, Ducksalad ([6]; 250 g ai/ha): 0
Plant response rating, Morningglory [7, 13]: 0
Plant response rating, Morningglory [7, 14]: 0
Plant response rating, Foxtail, Giant [8, 13]: 20
Plant response rating, Foxtail, Giant [8, 14]: 90
Plant response rating, Rice ([9]; 250 g ai/ha): 0
Plant response rating, Barnyardgrass ([10]; 250 g ai/ha): 0
Plant response rating, Barnyardgrass [11, 13]: 60
Plant response rating, Barnyardgrass [11, 15]: 80
Plant response rating, Velvetleaf [12, 13]: 0
Plant response rating, Velvetleaf [12, 14]: 0

O=C1NCC(c2ccc(F)c(F)c2)C1C(=O)Nc1cccnc1F (racemic) [Compound 105]
Plant response rating, Sedge, Umbrella ([1]; 1000 g ai/ha): 0
Plant response rating, Crabgrass, Large [2, 13]: 90
Plant response rating, Crabgrass, Large [2, 14]: 90
Plant response rating, Corn [3, 13]: 0
Plant response rating, Corn [3, 14]: 0
Plant response rating, Pigweed [4, 13]: 0
Plant response rating, Pigweed [4, 14]: 0
Plant response rating, Wheat [5, 13]: 0
Plant response rating, Wheat [5, 14]: 0
Plant response rating, Ducksalad ([6]; 1000 g ai/ha): 90
Plant response rating, Morningglory [7, 13]: 10
Plant response rating, Morningglory [7, 14]: 0
Plant response rating, Foxtail, Giant [8, 13]: 80
Plant response rating, Foxtail, Giant [8, 14]: 90
Plant response rating, Rice ([9]; 1000 g ai/ha): 10
Plant response rating, Barnyardgrass ([10]; 1000 g ai/ha): 25
Plant response rating, Barnyardgrass [11, 13]: 90
Plant response rating, Barnyardgrass [11, 15]: 90
Plant response rating, Velvetleaf [12, 13]: 10
Plant response rating, Velvetleaf [12, 14]: 0

COc1ncccc1NC(=O)C1C(=O)NCC1c1ccc(F)c(F)c1 (centres unmarked) [Compound 46]
Plant response rating, Sedge, Umbrella ([1]; 250 g ai/ha): 0
Plant response rating, Crabgrass, Large [2, 16]: 30
Plant response rating, Crabgrass, Large [2, 17]: 60
Crabgrass, Large plant response rating [2, 18]: 70
Plant response rating, Crabgrass, Large [2, 19]: 90
Corn plant response rating [3, 18]: 0
Plant response rating, Corn [3, 19]: 0
Plant response rating, Pigweed [4, 16]: 0
Plant response rating, Pigweed [4, 17]: 0
Pigweed plant response rating [4, 18]: 0
Plant response rating, Pigweed [4, 19]: 0
Plant response rating, Wheat [5, 16]: 0
Plant response rating, Wheat [5, 17]: 0
Wheat plant response rating [5, 18]: 0
Plant response rating, Wheat [5, 19]: 0
Plant response rating, Ducksalad ([6]; 250 g ai/ha): 0
Plant response rating, Morningglory [7, 16]: 0
Plant response rating, Morningglory [7, 17]: 0
Morningglory plant response rating [7, 18]: 0
Plant response rating, Morningglory [7, 19]: 0
Plant response rating, Foxtail, Giant [8, 16]: 0
Plant response rating, Foxtail, Giant [8, 17]: 40
Foxtail, Giant plant response rating [8, 18]: 40
Plant response rating, Foxtail, Giant [8, 19]: 80
Plant response rating, Rice ([9]; 250 g ai/ha): 0
Plant response rating, Barnyardgrass ([10]; 250 g ai/ha): 0
Plant response rating, Barnyardgrass [11, 16]: 0
Plant response rating, Barnyardgrass [11, 17]: 0
Barnyardgrass plant response rating [11, 18]: 0
Plant response rating, Barnyardgrass ([11]; preemergence, 500 g ai/ha, 0 to 100 scale (0 no effect, 100 complete control)): 50
Plant response rating, Velvetleaf [12, 16]: 0
Plant response rating, Velvetleaf [12, 17]: 0
Velvetleaf plant response rating [12, 18]: 0
Plant response rating, Velvetleaf [12, 19]: 0
